Assay results taken from US20220380319A1 (Bial - R&D Investments, S.A., priority 2019, published 2022).
Values after ≈ are worked out from the molar mass of the structure shown.

How the values were obtained:
[1] = biological target: T1, acid ceramidase (Homo sapiens, UniProt Q13510); assay: Acid ceramidase inhibition, biochemical fluorescent assay with cell lysates overexpressing acid ceramidase, substrate Rbm14-12; conditions: substrate Rbm14-12 6.3 μM
T1 construct: Cell lysates overexpressing acid ceramidase were used as the enzyme source; expressed in transfected cells
T1 sequence (Q13510 22-395): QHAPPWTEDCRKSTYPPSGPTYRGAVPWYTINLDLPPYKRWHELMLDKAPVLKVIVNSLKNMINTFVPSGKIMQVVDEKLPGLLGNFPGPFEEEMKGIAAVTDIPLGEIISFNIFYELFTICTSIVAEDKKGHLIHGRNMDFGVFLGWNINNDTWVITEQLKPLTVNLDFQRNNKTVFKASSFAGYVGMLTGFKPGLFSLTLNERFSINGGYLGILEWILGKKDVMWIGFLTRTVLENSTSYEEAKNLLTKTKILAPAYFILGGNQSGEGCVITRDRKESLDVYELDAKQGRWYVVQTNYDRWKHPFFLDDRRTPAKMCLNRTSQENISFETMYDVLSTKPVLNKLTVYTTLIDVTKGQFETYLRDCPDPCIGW
Description: The ability of exemplary compounds to inhibit acid ceramidase was measured.
Cell lysates overexpressing acid ceramidase were used as the enzyme source for compound potency determination in a biochemical fluorescent assay. Briefly, compounds were preincubated with 10 μg protein of cell lysates in a dose-response manner for 1 hr at RT in the assay buffer containing 25 mM NaAC and 100 mM NaCl, pH 4.5. The reaction was initiated by the addition of substrate Rbm14-12 at a final concentration of 6.3 μM. The reaction was run at RT for 1 hr before it was stopped by the addition of the stopping buffer containing 20% methanol (v/v), 1 mg/ml NaIO4, 0.1 M glycine, pH 10.6. The samples were incubated with the stopping buffer at RT for 1 hr to allow the fluorescent product to be formed. Finally, the plate was read with SpectraMax i3 plate reader (Molecular Devices) at ex360 nm and em446 nm. Data were collected and used to determine the IC50 values of compounds by curve fitting to the four-parameter inhibition equation.

[2] = Compound solubility in water
[3] = pH 4.5, 1 hr preincubation at RT

IC50 [1, 3] [nM] | solubility [2] [µg/mL] | IC50 ([1]; pH 4.5) [nM] | Compound
< 200 | 30.5 (≈ 84.1 µM) | – | CN1CCC(c2cccc3c2ncn3C(=O)NCCc2ccccc2)CC1 [Example 12, 4-(1-Methylpiperidin-4-yl)-N-phenethyl-1H-benzo[d]imidazole-1-carboxamide]
– | 32 (≈ 76.5 µM) | < 200 | CN1CC(N2CCN(c3cccc4c3ncn4C(=O)NCCc3ccccc3)CC2)C1 [Example 325, 4-(4-(1-Methylazetidin-3-yl)piperazin-1-yl)-N-phenethyl-1H-benzo[d]imidazole-1-carboxamide]
– | 22 (≈ 59.5 µM) | 200 to 1000 | COc1nc2ccccc2n1C(=O)NCCCCn1ccc(C(C)(C)C)n1 [Example 187, N-(4-(3-(tert-Butyl)-1H-pyrazol-1-yl)butyl)-2-methoxy-1H-benzo[d]imidazole-1-carboxamide]
< 200 | 8.6 (≈ 23 µM) | – | COc1nc2cc(-c3cncnc3)ccc2n1C(=O)NCCc1ccccc1 [Example 31b, 2-methoxy-N-phenethyl-5-(pyrimidin-5-yl)-1H-benzo[d]imidazole-1-carboxamide]
< 200 | 22.5 (≈ 95.6 µM) | – | CCCCNC(=O)n1cnc2cc(F)ccc21 [Example 67, N-Butyl-5-fluoro-1H-benzo[d]imidazole-1-carboxamide]
< 200 | 1.6 (≈ 4.3 µM) | – | COc1nc2cc(-c3cccnc3)ccc2n1C(=O)NCCc1ccccc1 [Example 30a, 2-Methoxy-N-phenethyl-5-(pyridin-3-yl)-1H-benzo[d]imidazole-1-carboxamide]
200 to 1000 | 30 (≈ 80.8 µM) | – | CC(C)CCNC(=O)n1cnc2c(N3CCN(C4COC4)CC3)cccc21 [Example 154, N-iso-Pentyl-4-(4-(oxetan-3-yl)piperazin-1-yl)-1H-benzo[d]imidazole-1-carboxamide]
< 200 | 9 (≈ 25.8 µM) | – | COc1nc2c(C#N)cccc2n1C(=O)NCC1CCC(F)(F)CC1 [Example 139, 4-Cyano-N-((4,4-difluorocyclohexyl)methyl)-2-methoxy-1H-benzo[d]imidazole-1-carboxamide]
200 to 1000 | 20 (≈ 54.1 µM) | – | CC(C)CCNC(=O)n1cnc2c(N3CCN(CC4CC4)CC3)cccc21 [Example 152, 4-(4-(Cyclopropylmethyl)piperazin-1-yl)-N-iso-pentyl-1H-benzo[d]imidazole-1-carboxamide]
– | 21 (≈ 55.8 µM) | < 200 | O=C(NCCCc1ccccc1)n1cnc2c(CCCN3CCC3)cccc21 [Example 262, 4-(3-(Azetidin-1-yl)propyl)-N-(3-phenylpropyl)-1H-benzo[d]imidazole-1-carboxamide]
– | 4 (≈ 11.2 µM) | 200 to 1000 | CC(C)CCNC(=O)n1cnc2c(N3CCO[C@H](C(C)C)C3)cccc21 [Example 172b, (R)—N-iso-pentyl-4-(2-iso-propylmorpholino)-1H-benzo[d]imidazole-1-carboxamide]
< 200 | 24 (≈ 54.2 µM) | – | CN1CC(N2CCN(c3cccc4c3ncn4C(=O)NCCC#Cc3ccccc3)CC2)C1 [Example 361]
< 200 | 0.2 (≈ 0.54 µM) | – | COc1cc(N2CCCCC2)c2ncn(C(=O)NCCCCC3CC3)c2c1 [Example 132, N-(4-Cyclopropylbutyl)-6-methoxy-4-(piperidin-1-yl)-1H-benzo[d]imidazole-1-carboxamide]
– | 2 (≈ 5.34 µM) | 200 to 1000 | COc1nc2cc(N3CCOCC3)c(F)cc2n1C(=O)NCC#CC(C)C [Example 321a, 6-Fluoro-2-methoxy-N-(4-methylpent-2-yn-1-yl)-5-morpholino-1H-benzo[d]imidazole-1-carboxamide]
– | 2 (≈ 4.9 µM) | < 200 | CCOc1nc2cc(N3CCOCC3)ccc2n1C(=O)NCCCc1ccccc1 [Example 189a, 2-Ethoxy-5-morpholino-N-(3-phenylpropyl)-1H-benzo[d]imidazole-1-carboxamide]
< 200 | 7.1 (≈ 19 µM) | – | COc1nc2ccc(-c3cncnc3)cc2n1C(=O)NCCc1ccccc1 [Example 31a, 2-Methoxy-N-phenethyl-6-(pyrimidin-5-yl)-1H-benzo[d]imidazole-1-carboxamide]

IC50 [1, 3] [nM] | solubility [2] [µg/mL] | IC50 ([1]; pH 4.5) [nM] | Compound
– | 28 (≈ 81.5 µM) | 200 to 1000 | CC(C)CCNC(=O)n1cnc2c(N3CCN(C)C(C)C3)cccc21 (stereo not drawn) [Example 197, 4-(3,4-Dimethylpiperazin-1-yl)-N-iso-pentyl-1H-benzo[d]imidazole-1-carboxamide]
< 200 | 11 (≈ 27 µM) | – | CN1CCN(c2cccc3c2ncn3C(=O)NCc2ccc3c(c2)OCCO3)CC1 [Example 365, N-((2,3-Dihydrobenzo[b][1,4]dioxin-6-yl)methyl)-4-(4-methylpiperazin-1-yl)-1H-benzo[d]imidazole-1-carboxamide]
– | 31 (≈ 80.6 µM) | 200 to 1000 | CC(C)CCNC(=O)n1cnc2c(N3CC(N4CCN(C)CC4)C3)cccc21 [Example 205, N-iso-Pentyl-4-(3-(4-methylpiperazin-1-yl)-azetidine-1-yl)-1H-benzo[d]imidazole-1-carboxamide]
– | 21 (≈ 53.6 µM) | 200 to 1000 | CN1CCN(c2cccc3c2ncn3C(=O)NCCC2CCCC2(F)F)CC1 (stereo not drawn) [Example 259, N-(2-(2,2-Difluorocyclopentyl)ethyl)-4-(4-methylpiperazin-1-yl)-1H-benzo[d]imidazole-1-carboxamide]
< 200 | 2.6 (≈ 9.18 µM) | – | O=C(NCCc1ccccc1)n1cnc2cc(F)ccc21 [Example 63, 5-Fluoro-N-phenethyl-1H-benzo[d]imidazole-1-carboxamide]
200 to 1000 | 9.5 (≈ 32.1 µM) | – | COc1ccnc2c1ncn2C(=O)NCCc1ccccc1 [Example 50, 7-Methoxy-N-phenethyl-3H-imidazo[4,5-b]pyridine-3-carboxamide]
– | 30 (≈ 74.6 µM) | 200 to 1000 | COc1nc2ccc(N3CCOCC3)cc2n1C(=O)NCCCOC(F)(F)F [Example 233a, 2-Methoxy-6-morpholino-N-(3-(trifluoromethoxy)propyl)-1H-benzo[d]imidazole-1-carboxamide]
– | 36 (≈ 86.2 µM) | 200 to 1000 | CN1CC2CCC1CN2c1cccc2c1ncn2C(=O)NCCC1CCC(F)(F)C1 (stereo not drawn) [Example 292, N-(2-(3,3-Difluorocyclopentyl)ethyl)-4-(5-methyl-2,5-diazabicyclo[2.2.2]octan-2-yl)-1H-benzo[d]imidazole-1-carboxamide]
– | 4 (≈ 9.49 µM) | < 200 | CC(C)C#CCNC(=O)n1cnc2c(N3CCN(CCC(F)(F)F)CC3)cccc21 [Example 310, N-(4-Methylpent-2-yn-1-yl)-4-(4-(3,3,3-trifluoropropyl)piperazin-1-yl)-1H-benzo[d]imidazole-1-carboxamide]
200 to 1000 | 28 (≈ 101 µM) | – | CCCCNC(=O)n1c(OC)nc2c(OC)cccc21 [Example 100, N-Butyl-2,4-dimethoxy-1H-benzo[d]imidazole-1-carboxamide]
< 200 | 34.8 (≈ 87.3 µM) | – | CCCCNC(=O)n1cnc2ccc(N3CCC(N4CCN(C)CC4)CC3)cc21 [Example 102a, N-Butyl-6-(4-(4-methylpiperazin-1-yl)piperidin-1-yl)-1H-benzo[d]imidazole-1-carboxamide]
< 200 | 14.3 (≈ 46.2 µM) | – | CC(C)CCNC(=O)n1cnc2ccc(-c3cncnc3)cc21 [Example 103a, N-iso-Pentyl-6-(pyrimidin-5-yl)-1H-benzo[d]imidazole-1-carboxamide]
< 200 | 23 (≈ 52 µM) | – | CN1CCN(C2CN(c3cccc4c3ncn4C(=O)NCCC#Cc3ccccc3)C2)CC1 [Example 362, 4-(3-(4-Methylpiperazin-1-yl)azetidin-1-yl)-N-(4-phenylbut-3-ynyl)-1H-benzo[d]imidazole-1-carboxamide]
< 200 | 20.4 (≈ 53.6 µM) | – | COc1cc2ncn(C(=O)NCCc3ccccc3)c2cc1N1CCOCC1 [Example 38a, 5-Methoxy-6-morpholino-N-phenethyl-1H-benzo[d]imidazole-1-carboxamide]
– | 22 (≈ 60.2 µM) | < 200 | CC(C)C#CCNC(=O)n1cnc2c(N3CCN4CCCC4C3)cccc21 (stereo not drawn) [Example 302, 4-(Hexahydropyrrolo[1,2-a]pyrazin-2(1H)-yl)-N-(4-methylpent-2-yn-1-yl)-1H-benzo[d]imidazole-1-carboxamide]

Compound | IC50 [1, 3] [nM] | solubility [2] [µg/mL] | IC50 ([1]; pH 4.5) [nM]
CN1CC2CC(C1)N2c1cccc2c1ncn2C(=O)NCCCc1ccccc1 [Example 245, 4-(3-Methyl-3,6-diazabicyclo[3.1.1]heptan-6-yl)-N-(3-phenylpropyl)-1H-benzo[d]imidazole-1-carboxamide] | – | 32 (≈ 82.2 µM) | < 200
CN1CC2CCC(C1)N2c1cccc2c1ncn2C(=O)NCCCc1ccccc1 [Example 241, 4-(3-Methyl-3,8-diazabicyclo[3.2.1]octan-8-yl)-N-(3-phenylpropyl)-1H-benzo[d]imidazole-1-carboxamide] | – | 25 (≈ 62 µM) | < 200
